# Test results taken from patent US9352049B2, “Ligand-therapeutic agent conjugates, silicon-based linkers, and methods for making and using them” (Albany Molecular Research, Inc., priority 2013, dated 2016).
# Structures can show the parent of a compound that is named as a salt. Where two headings read alike, the source gives them in different places.
# Legend:
# [1] = tested on: FR-negative human lung carcinoma A549 cells; experiment: cells; assay type: cell-based; settings: for IC50: read-out: IC50, Inhibition of Cell Growth by the PrestoBlue Method; for inhibition at 10 µM: read-out: Percentage inhibition at the highest concentration tested (10 μM)
# Experimental: (§1) Folate receptor (FR)-positive KB cells (Human) from European Collection of Cell Cultures (ECACC) [Catalogue #94050408] or FR-negative human lung carcinoma A549 cells from American Type Culture Collection (ATCC) [Catalogue # CCL-185] were maintained in T75 flasks in folic acid-free RPMI 1640 medium (Invitrogen, catalogue no. 27016021) containing 10% fetal bovine serum (FBS; Invitrogen, catalogue no. 16140-071) and penicillin/streptomycin (Invitrogen, catalogue no. 15140-122) at 37° C., 5% CO2.
# (§2) Cells were harvested from their maintenance cultures and seeded in 96-well plates at a density of 10000 cells per well in 100 μL folic acid-free RPMI 1640 medium and incubated at 37° C., 5% CO2 for 20-24 hours. Thirty minutes prior to compound treatment, spent medium was removed and replaced with 100 μL fresh folic acid-free RPMI 1640 medium either as such, or supplemented with 100 μmol/L folic acid. The test compounds were diluted to three times their desired final concentrations in the culture medium from their DMSO stocks. […] Following compound treatment, the cells were washed thrice with 100 μL medium and incubated with 180 μL fresh medium for 72 hours. To assess cell viability, 20 μL of PrestoBlue reagent (Invitrogen, catalogue # A-13261) was added to the wells and the plates were further incubated for 1 hour at 37° C. The PrestoBlue reagent contains a cell-permeant dye, resazurin, which is blue in color and virtually nonfluorescent. When added to cells, it is reduced by the mitochondrial enzymes in viable cells to red, highly fluorescent resorufin. Resazurin reduction is proportional to the number of metabolically active cells and therefore can be measured quantitatively. Following incubation with the PrestoBlue reagent for 1 hour, fluorescence corresponding to the resorufin dye was read on a Synergy 4 multimode microplate reader (Biotek Instruments) with the excitation and emission wavelengths set at 540 nm and 590 nm respectively. The data was analysed using XLFit and the percentage inhibition of cell proliferation was calculated.
# [2] = tested on: Folate receptor (FR)-positive KB cells; experiment: cells; assay type: cell-based, Human; settings: for IC50: read-out: IC50, Inhibition of Cell Growth by the PrestoBlue Method; for inhibition at 10 µM: KB, read-out: Percentage inhibition at the highest concentration tested (10 μM)
# Experimental: as §1, §2
# [3] = Homo sapiens, No FA, incubation 2 h
# [4] = Homo sapiens, No FA, incubation 4 h
# [5] = Homo sapiens, No FA, incubation 8 h
# [6] = Homo sapiens, No FA, incubation 16 h
smiles,measurement,setting,value
"CC[C@]1(O)C[C@H]2CN(CCc3c([nH]c4ccccc34)[C@@](C(=O)OC)(c3cc4c(cc3OC)N(C)[C@@H]3C45CCN4CC=C[C@](CC)([C@H]45)[C@@H](O)[C@]3(O)C(=O)OC)C2)C1 (stereo partly shown) [4-desacetylvinblastine, reference compound]",IC50,"[1]; No FA, incubation 2 h",4.6 µM
same,IC50,"[1]; No FA, incubation 4 h",0.633 µM
same,IC50,"[1]; No FA, incubation 8 h",0.129 µM
same,IC50,"[1]; No FA, incubation 16 h",0.057 µM
same,IC50,"[2]; No FA, incubation 2 h",0.045 µM
same,IC50,"[2]; No FA, incubation 4 h",0.01 µM
same,IC50,"[2]; No FA, incubation 8 h",0.002 µM
same,IC50,"[2]; No FA, incubation 16 h",0.003 µM
"Nc1nc(O)c2nc(CNc3ccc(C(=O)N[C@@H](CCC(=O)NCCOCCOCCNC(=O)CCCC[Si]4(O)CCCCC4)C(=O)O)cc3)cnc2n1 [Compound Z, (S)-2-(4-(((2-amino-4-hydroxypteridin-6-yl)methyl)amino)benzamido)-20-(1-hydroxysilinan-1-yl)-5,16-dioxo-9,12-dioxa-6,15-diazaicosan-1-oic acid triethylammonium salt, reference compound]",IC50,"[1]; 100 μM FA, incubation 2 h",> 10 µM
same,IC50,"[1]; 100 μM FA, incubation 4 h",> 10 µM
same,IC50,"[1]; 100 μM FA, incubation 8 h",> 10 µM
same,IC50,"[1]; 100 μM FA, incubation 16 h",> 10 µM
same,inhibition at 10 µM,"[1]; Homo sapiens, A549, 2 h, 100 μM FA, incubation 2 h",9%
same,inhibition at 10 µM,"[1]; Homo sapiens, A549, 2 h, No FA, incubation 2 h",7%
same,inhibition at 10 µM,"[1]; Homo sapiens, A549, 4 h, 100 μM FA, incubation 4 h",≤ 0%
same,inhibition at 10 µM,"[1]; Homo sapiens, A549, 4 h, No FA, incubation 4 h",≤ 0%
same,inhibition at 10 µM,"[1]; Homo sapiens, A549, 8 h, 100 μM FA, incubation 8 h",≤ 0%
same,inhibition at 10 µM,"[1]; Homo sapiens, A549, 8 h, No FA, incubation 8 h",≤ 0%
same,inhibition at 10 µM,"[1]; Homo sapiens, A549, 16 h, 100 μM FA, incubation 16 h",3.5%
same,inhibition at 10 µM,"[1]; Homo sapiens, A549, 16 h, No FA, incubation 16 h",≤ 0%
same,IC50,[1]; [3],> 10 µM
same,IC50,[1]; [4],> 10 µM
same,IC50,[1]; [5],> 10 µM
same,IC50,[1]; [6],> 10 µM
same,IC50,"[2]; 100 μM FA, incubation 2 h",> 10 µM
same,IC50,"[2]; 100 μM FA, incubation 4 h",> 10 µM
same,IC50,"[2]; 100 μM FA, incubation 8 h",> 10 µM
same,IC50,"[2]; 100 μM FA, incubation 16 h",> 10 µM
same,inhibition at 10 µM,"[2]; Homo sapiens, 2 h, 100 μM FA, incubation 2 h",1%
same,inhibition at 10 µM,"[2]; Homo sapiens, 2 h, No FA, incubation 2 h",≤ 0%
same,inhibition at 10 µM,"[2]; Homo sapiens, 4 h, 100 μM FA, incubation 4 h",≤ 0%
same,inhibition at 10 µM,"[2]; Homo sapiens, 4 h, No FA, incubation 4 h",≤ 0%
same,inhibition at 10 µM,"[2]; Homo sapiens, 8 h, 100 μM FA, incubation 8 h",≤ 0%
same,inhibition at 10 µM,"[2]; Homo sapiens, 8 h, No FA, incubation 8 h",≤ 0%
same,inhibition at 10 µM,"[2]; Homo sapiens, 16 h, 100 μM FA, incubation 16 h",2%
same,inhibition at 10 µM,"[2]; Homo sapiens, 16 h, No FA, incubation 16 h",1%
same,IC50,[2]; [3],> 10 µM
same,IC50,[2]; [4],> 10 µM
same,IC50,[2]; [5],> 10 µM
same,IC50,[2]; [6],> 10 µM
CCC1(O)CC2CN(CCc3c([nH]c4ccccc34)C(C(=O)OC)(c3cc4c(cc3OC)N(C)C3C(O)(C(=O)OC)C(O[Si]5(CCCCC(=O)NCCOCCOCCNC(=O)CCC(NC(=O)c6ccc(NCc7cnc8nc(N)nc(O)c8n7)cc6)C(=O)O)CCCCC5)C5(CC)C=CCN6CCC43C65)C2)C1 (stereo not shown) [Example 20],Percentage inhibition at the highest concentration tested (10 μM),"[1]; 100 μM FA, incubation 2 h",44%
same,IC50,"[1]; 100 μM FA, incubation 2 h",> 10 µM
same,IC50,"[1]; 100 μM FA, incubation 4 h",6.6 µM
same,IC50,"[1]; 100 μM FA, incubation 8 h",4.1 µM
same,IC50,"[1]; 100 μM FA, incubation 16 h",1.4 µM
same,Percentage inhibition at the highest concentration tested (10 μM),"[1]; No FA, incubation 2 h",20%
same,IC50,"[1]; No FA, incubation 2 h",> 10 µM
same,Percentage inhibition at the highest concentration tested (10 μM),"[1]; No FA, incubation 4 h",46%
same,IC50,"[1]; No FA, incubation 4 h",> 10 µM
same,IC50,"[1]; No FA, incubation 8 h",6.7 µM
same,IC50,"[1]; No FA, incubation 16 h",1.4 µM
same,IC50,"[2]; 100 μM FA, incubation 2 h",4.2 µM
same,IC50,"[2]; 100 μM FA, incubation 4 h",3.4 µM
same,IC50,"[2]; 100 μM FA, incubation 8 h",3.1 µM
same,IC50,"[2]; 100 μM FA, incubation 16 h",1.5 µM
same,IC50,"[2]; No FA, incubation 2 h",3.5 µM
same,IC50,"[2]; No FA, incubation 4 h",2.6 µM
same,IC50,"[2]; No FA, incubation 8 h",1.8 µM
same,IC50,"[2]; No FA, incubation 16 h",0.3 µM
CC[C@]1(O)CC2CN(CCc3c([nH]c4ccccc34)[C@@](C(=O)OC)(c3cc4c(cc3OC)N(C)[C@H]3[C@@](O)(C(=O)OC)[C@H](O[Si]5(CCCCC(=O)NCCOCCOCCOCCNC(=O)CC[C@H](NC(=O)c6ccc(NCc7cnc8nc(N)nc(O)c8n7)cc6)C(=O)O)CCCCC5)[C@]5(CC)C=CCN6CC[C@]43[C@@H]65)C2)C1 (stereo partly shown) [Example 21],Percentage inhibition at the highest concentration tested (10 μM),"[1]; 100 μM FA, incubation 2 h",40%
same,IC50,"[1]; 100 μM FA, incubation 2 h",> 10 µM
same,IC50,"[1]; 100 μM FA, incubation 4 h",8.6 µM
same,IC50,"[1]; 100 μM FA, incubation 8 h",5.3 µM
same,IC50,"[1]; 100 μM FA, incubation 16 h",1.8 µM
same,Percentage inhibition at the highest concentration tested (10 μM),"[1]; No FA, incubation 2 h",8%
same,IC50,"[1]; No FA, incubation 2 h",> 10 µM
same,Percentage inhibition at the highest concentration tested (10 μM),"[1]; No FA, incubation 4 h",24%
same,IC50,"[1]; No FA, incubation 4 h",> 10 µM
same,Percentage inhibition at the highest concentration tested (10 μM),"[1]; No FA, incubation 8 h",47%
same,IC50,"[1]; No FA, incubation 8 h",> 10 µM
same,IC50,"[1]; No FA, incubation 16 h",4.4 µM
same,IC50,"[2]; 100 μM FA, incubation 2 h",6 µM
same,IC50,"[2]; 100 μM FA, incubation 4 h",4 µM
same,IC50,"[2]; 100 μM FA, incubation 8 h",3.1 µM
same,IC50,"[2]; 100 μM FA, incubation 16 h",1.7 µM
same,IC50,"[2]; No FA, incubation 2 h",4.1 µM
same,IC50,"[2]; No FA, incubation 4 h",3.1 µM
same,IC50,"[2]; No FA, incubation 8 h",2.3 µM
same,IC50,"[2]; No FA, incubation 16 h",1.5 µM
